In US8697739B2, “Bicyclic acetyl-CoA carboxylase inhibitors and uses thereof” (Novartis AG, priority 2010, dated 2014):

biological target: T1, human acetyl-CoA carboxylase 2 (ACC2) (Homo sapiens, UniProt O00763); assay: Acetyl-CoA carboxylase enzyme assay (malonyl-CoA formation by LC/MS/MS); format: biochemical; details: recombinant human ACC2 (aa 144-2458); read-out: IC50 ACC2
T1 construct: The cDNA encoding amino acids 144 to 2458 of human acetyl-CoA carboxylase 2; made in house; host or cells: Sf9 insect cells (baculovirus, pFastBac1)
In short: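 Malonyl-CoA formation was read by LC/MS/MS MRM against a [13C3]-malonyl-CoA internal standard, after acetic acid quench. The enzyme was baculovirus/Sf9-expressed human ACC2 residues 144–2458, given 15 minutes room-temperature compound preincubation in HEPES pH 7.5 buffer with MgCl2, citrate and DTT. Substrate solution held 50 μM acetyl-CoA, 120 μM ATP and 2 mM KHCO3.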

T1 sequence (O00763 144-2458): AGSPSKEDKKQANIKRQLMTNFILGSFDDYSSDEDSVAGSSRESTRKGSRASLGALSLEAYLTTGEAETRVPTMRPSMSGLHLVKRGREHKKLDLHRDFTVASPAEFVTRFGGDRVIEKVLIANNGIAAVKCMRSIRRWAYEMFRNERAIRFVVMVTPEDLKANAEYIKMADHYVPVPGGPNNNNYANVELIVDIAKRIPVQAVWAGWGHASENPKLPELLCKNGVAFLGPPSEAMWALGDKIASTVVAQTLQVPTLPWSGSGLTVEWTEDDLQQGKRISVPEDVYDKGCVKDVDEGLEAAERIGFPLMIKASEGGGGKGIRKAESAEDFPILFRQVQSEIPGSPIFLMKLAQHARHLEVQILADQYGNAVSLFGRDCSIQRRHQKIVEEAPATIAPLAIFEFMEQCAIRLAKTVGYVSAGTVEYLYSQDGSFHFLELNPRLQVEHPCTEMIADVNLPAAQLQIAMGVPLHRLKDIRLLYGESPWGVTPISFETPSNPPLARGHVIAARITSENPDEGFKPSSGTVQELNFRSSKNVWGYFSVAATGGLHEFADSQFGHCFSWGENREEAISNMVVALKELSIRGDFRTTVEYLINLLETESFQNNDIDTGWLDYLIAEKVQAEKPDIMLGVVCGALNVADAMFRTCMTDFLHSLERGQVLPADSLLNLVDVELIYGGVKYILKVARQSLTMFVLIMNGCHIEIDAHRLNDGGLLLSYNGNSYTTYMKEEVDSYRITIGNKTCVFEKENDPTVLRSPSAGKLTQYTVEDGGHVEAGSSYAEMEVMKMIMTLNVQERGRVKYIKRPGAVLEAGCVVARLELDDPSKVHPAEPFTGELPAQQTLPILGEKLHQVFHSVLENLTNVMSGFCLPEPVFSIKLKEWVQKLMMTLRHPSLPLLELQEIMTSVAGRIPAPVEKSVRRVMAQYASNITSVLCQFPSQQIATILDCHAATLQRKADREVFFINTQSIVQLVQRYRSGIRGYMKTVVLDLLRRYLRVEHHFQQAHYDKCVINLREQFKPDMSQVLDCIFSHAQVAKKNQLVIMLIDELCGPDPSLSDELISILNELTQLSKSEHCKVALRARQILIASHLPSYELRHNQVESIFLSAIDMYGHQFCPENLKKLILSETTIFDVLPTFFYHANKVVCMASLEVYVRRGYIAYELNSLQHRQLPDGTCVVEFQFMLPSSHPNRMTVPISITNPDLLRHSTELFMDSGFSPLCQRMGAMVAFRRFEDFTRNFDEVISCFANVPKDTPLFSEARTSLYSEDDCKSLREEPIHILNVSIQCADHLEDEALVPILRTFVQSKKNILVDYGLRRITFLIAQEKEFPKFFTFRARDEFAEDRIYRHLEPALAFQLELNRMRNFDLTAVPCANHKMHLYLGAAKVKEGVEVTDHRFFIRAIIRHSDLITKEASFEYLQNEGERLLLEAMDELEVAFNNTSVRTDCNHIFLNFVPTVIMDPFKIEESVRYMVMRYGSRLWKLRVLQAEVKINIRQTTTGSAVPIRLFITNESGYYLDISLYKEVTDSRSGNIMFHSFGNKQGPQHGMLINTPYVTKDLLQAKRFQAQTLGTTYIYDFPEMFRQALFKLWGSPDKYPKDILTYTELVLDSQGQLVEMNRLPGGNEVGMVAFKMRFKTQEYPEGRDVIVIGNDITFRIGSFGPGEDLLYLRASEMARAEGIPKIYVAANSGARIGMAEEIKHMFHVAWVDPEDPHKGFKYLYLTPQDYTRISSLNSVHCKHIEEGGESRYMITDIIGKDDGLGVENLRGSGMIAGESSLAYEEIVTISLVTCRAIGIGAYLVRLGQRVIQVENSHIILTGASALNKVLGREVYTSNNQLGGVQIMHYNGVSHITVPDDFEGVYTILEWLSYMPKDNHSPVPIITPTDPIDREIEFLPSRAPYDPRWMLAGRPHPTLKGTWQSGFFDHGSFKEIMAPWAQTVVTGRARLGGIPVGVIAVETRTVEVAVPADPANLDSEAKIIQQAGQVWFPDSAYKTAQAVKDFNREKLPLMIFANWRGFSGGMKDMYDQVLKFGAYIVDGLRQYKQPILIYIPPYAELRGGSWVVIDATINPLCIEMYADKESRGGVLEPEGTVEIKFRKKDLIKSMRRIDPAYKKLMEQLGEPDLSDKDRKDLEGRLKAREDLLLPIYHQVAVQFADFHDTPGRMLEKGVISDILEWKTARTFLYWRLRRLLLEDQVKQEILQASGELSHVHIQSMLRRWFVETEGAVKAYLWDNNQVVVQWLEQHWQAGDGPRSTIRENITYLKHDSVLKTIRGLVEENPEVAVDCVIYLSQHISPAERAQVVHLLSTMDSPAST

Row | IC50 | Structure (SMILES)
1 | < 10 nM | Cc1cc(CO)ccc1-c1cc2ccc(S(=O)(=O)N[C@H]3CC[C@H](C(=O)N4CCNC[C@@H]4c4ccccc4)CC3)cc2[nH]1 [Example 313, 2-(4-(hydroxymethyl)-2-methylphenyl)-N-((1S,4r)-4-((S)-2-phenylpiperazine-1-carbonyl)cyclohexyl)-1H-indole-6-sulfonamide]
2 | 60 nM | Cc1cc(CO)ccc1-c1cc2ccc(S(=O)(=O)N[C@H]3CC[C@H](C(=O)N4CCCCC4)CC3)cc2[nH]1 [Example 314, 2-(4-(hydroxymethyl)-2-methylphenyl)-N-((1r,4r)-4-(piperidine-1-carbonyl)cyclohexyl)-1H-indole-6-sulfonamide]
3 | 20 nM | Cc1cc(CO)ccc1-c1cc2ccc(S(=O)(=O)N[C@H]3CC[C@H](C(=O)N[C@H](C)c4ccc(F)cc4)CC3)cc2n1C [Example 315, (1r,4R)-N-((R)-1-(4-fluorophenyl)ethyl)-4-(2-(4-(hydroxymethyl)-2-methylphenyl)-1-methyl-1H-indole-6-sulfonamido)cyclohexanecarboxamide]
4 | 110 nM | CC(O)Cc1cc2ccc(S(=O)(=O)N[C@H]3CC[C@H](C(=O)N[C@H](C)c4ccc(F)cc4)CC3)cc2[nH]1 (stereo partly drawn) [Example 316, (1r,4R)-N-((R)-1-(4-fluorophenyl)ethyl)-4-(2-(2-hydroxypropyl)-1H-indole-6-sulfonamido)cyclohexanecarboxamide]
5 | 25 nM | Cc1cc(CO)ccc1-c1cc2ccc(S(=O)(=O)N[C@H]3CC[C@H](C(=O)N4CCNC(C(F)(F)F)C4)CC3)cc2[nH]1 (stereo partly drawn) [Example 317, 2-(4-(hydroxymethyl)-2-methylphenyl)-N-((1r,4r)-4-(3-(trifluoromethyl)piperazine-1-carbonyl)cyclohexyl)-1H-indole-6-sulfonamide]
6 | 515 nM | Cc1cc(CO)ccc1-c1cc2ccc(S(=O)(=O)N[C@H]3CC[C@H](C(=O)N4CCNC(C(F)(F)F)C4)CC3)cc2n1C (stereo partly drawn) [Example 318, 2-(4-(hydroxymethyl)-2-methylphenyl)-1-methyl-N-((1r,4r)-4-(3-(trifluoromethyl)piperazine-1-carbonyl)cyclohexyl)-1H-indole-6-sulfonamide]
7 | 25 nM | C[C@@H](NC(=O)[C@H]1CC[C@H](NS(=O)(=O)c2ccc3cc(CCCO)[nH]c3c2)CC1)c1ccc(F)cc1 [Example 319, (1r,4R)-N-((R)-1-(4-fluorophenyl)ethyl)-4-(2-(3-hydroxypropyl)-1H-indole-6-sulfonamido)cyclohexanecarboxamide]
8 | 85 nM | Cc1ccccc1-c1cc2ccc(S(=O)(=O)N[C@H]3CC[C@H](C(=O)N4CCNC(C(F)(F)F)C4)CC3)cc2[nH]1 (stereo partly drawn) [Example 320, 2-o-tolyl-N-((1r,4r)-4-(3-(trifluoromethyl)piperazine-1-carbonyl)cyclohexyl)-1H-indole-6-sulfonamide]
9 | 250 nM | Cc1ccccc1-c1cc2ccc(S(=O)(=O)N[C@H]3CC[C@H](C(=O)N4CCCC(C(F)(F)F)C4)CC3)cc2[nH]1 (stereo partly drawn) [Example 321, 2-o-tolyl-N-((1r,4r)-4-(3-(trifluoromethyl)piperidine-1-carbonyl)cyclohexyl)-1H-indole-6-sulfonamide]
10 | < 10 nM | Cc1ccccc1-c1cc2ccc(S(=O)(=O)N[C@H]3CC[C@H](C(=O)N4CCN(C(=O)OC(C)(C)C)C[C@@H]4c4ccccc4)CC3)cc2[nH]1 [Example 322, (S)-tert-butyl 3-phenyl-4-((1r,4S)-4-(2-o-tolyl-1H-indole-6-sulfonamido)cyclohexanecarbonyl)piperazine-1-carboxylate]
11 | 55 nM | O=C([C@H]1CC[C@H](NS(=O)(=O)c2ccc3cc(-c4ccccc4)[nH]c3c2)CC1)N1CCNC(C(F)(F)F)C1 (stereo partly drawn) [Example 323, 2-phenyl-N-((1r,4r)-4-(3-(trifluoromethyl)piperazine-1-carbonyl)cyclohexyl)-1H-indole-6-sulfonamide]
12 | 40 nM | Cn1c(-c2ccccc2)cc2ccc(S(=O)(=O)N[C@H]3CC[C@H](C(=O)N4CCNC(C(F)(F)F)C4)CC3)cc21 (stereo partly drawn) [Example 324, 1-methyl-2-phenyl-N-((1r,4r)-4-(3-(trifluoromethyl)piperazine-1-carbonyl)cyclohexyl)-1H-indole-6-sulfonamide]
13 | < 10 nM | Cc1ccccc1-c1cc2ccc(S(=O)(=O)N[C@H]3CC[C@H](C(=O)N4CCNC[C@@H]4c4ccccc4)CC3)cc2[nH]1 [Example 325, N-((1S,4r)-4-((S)-2-phenylpiperazine-1-carbonyl)cyclohexyl)-2-o-tolyl-1H-indole-6-sulfonamide]
14 | 325 nM | Cc1ccccc1-c1cc2ccc(S(=O)(=O)N[C@H]3CC[C@H](C(=O)N4CCOC[C@@H]4c4ccccc4)CC3)cc2[nH]1 [Example 326, N-((1S,4r)-4-((S)-3-phenylmorpholine-4-carbonyl)cyclohexyl)-2-o-tolyl-1H-indole-6-sulfonamide]
15 | < 10 nM | Cc1ccccc1-c1cc2ccc(S(=O)(=O)NC3CCC(C(=O)N4CCOCC4c4ccccc4)CC3)cc2[nH]1 [Example 327, N-((1S,4r)-4-((S)-3-phenylmorpholine-4-carbonyl)cyclohexyl)-2-o-tolyl-1H-indole-6-sulfonamide]
16 | 55 nM | CC(C)(C)OC(=O)N1CCN(C(=O)[C@H]2CC[C@H](NS(=O)(=O)c3ccc4cc(-c5ccccc5C(F)(F)F)[nH]c4c3)CC2)[C@@H](c2ccccc2)C1 [Example 328, (S)-tert-butyl 3-phenyl-4-((1r,4S)-4-(2-(2-(trifluoromethyl)phenyl)-1H-indole-6-sulfonamido)cyclohexanecarbonyl)piperazine-1-carboxylate]
17 | 120 nM | C[C@@H](NC(=O)[C@H]1CC[C@H](NS(=O)(=O)c2ccc3cc(-c4ccccc4C(F)(F)F)[nH]c3c2)CC1)c1ccc(F)cc1 [Example 329, (1r,4R)-N-((R)-1-(4-fluorophenyl)ethyl)-4-(2-(2-(trifluoromethyl)phenyl)-1H-indole-6-sulfonamido)cyclohexanecarboxamide]
18 | 3600 nM | O=C([C@H]1CC[C@H](NS(=O)(=O)c2ccc3cc(-c4ccccc4C(F)(F)F)[nH]c3c2)CC1)N1CCCC(C(F)(F)F)C1 (stereo partly drawn) [Example 330, 2-(2-(trifluoromethyl)phenyl)-N-((1r,4r)-4-(3-(trifluoromethyl)piperidine-1-carbonyl)cyclohexyl)-1H-indole-6-sulfonamide]
19 | 25 nM | Cn1c(-c2ccccc2)cc2ccc(S(=O)(=O)N[C@H]3CC[C@H](C(=O)N4CCN[C@H](C(F)(F)F)C4)CC3)cc21 [Example 331, 1-methyl-2-phenyl-N-((1S,4r)-4-((S)-3-(trifluoromethyl)piperazine-1-carbonyl)cyclohexyl)-1H-indole-6-sulfonamide]
20 | 25 nM | Cn1c(-c2ccccc2)cc2ccc(S(=O)(=O)N[C@H]3CC[C@H](C(=O)N4CCN[C@@H](C(F)(F)F)C4)CC3)cc21 [Example 332, 1-methyl-2-phenyl-N-((1R,4r)-4-((R)-3-(trifluoromethyl)piperazine-1-carbonyl)cyclohexyl)-1H-indole-6-sulfonamide]
21 | 65 nM | O=C([C@H]1CC[C@H](NS(=O)(=O)c2ccc3cc(-c4ccccc4C(F)(F)F)[nH]c3c2)CC1)N1CCNC[C@@H]1c1ccccc1 [Example 333, N-((1S,4r)-4-((S)-2-phenylpiperazine-1-carbonyl)cyclohexyl)-2-(2-(trifluoromethyl)phenyl)-1H-indole-6-sulfonamide]
